Test results taken from the supplement of paper PMC10307832.

How the values were obtained:
Assay in all cases: relative viability (nuclei count vs DMSO), 5 days (fraction); higher = more cells survive
CAP-232 + Alpelisib = compound: C[C@H]([C@@H](C(=O)N)NC(=O)[C@@H]1CSSC[C@@H](C(=O)N[C@H](C(=O)N[C@@H](C(=O)N[C@H](C(=O)N1)CCCCN)CC2=CNC3=CC=CC=C32)CC4=CC=C(C=C4)O)NC(=O)[C@@H](CC5=CC=CC=C5)N)O [CAP-232] + Cc1nc(NC(=O)N2CCC[C@H]2C(N)=O)sc1-c1ccnc(C(C)(C)C(F)(F)F)c1 [Alpelisib] (partner 2 µM)
Summary of the method: (§1)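 Relative viability equals treated-well nuclei counts divided by vehicle-well nuclei counts. Counts came from 4× images of lung cancer cell lines grown in 1536-well plates for 5 days after pin-tool dosing on the day after seeding. Dosing used one drug alone or a fixed anchor-drug dose plus five library-drug doses (not always all listed) in √10 steps, and values are medians of duplicate plates.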

CAP-232 + Vorinostat = compound: C[C@H]([C@@H](C(=O)N)NC(=O)[C@@H]1CSSC[C@@H](C(=O)N[C@H](C(=O)N[C@@H](C(=O)N[C@H](C(=O)N1)CCCCN)CC2=CNC3=CC=CC=C32)CC4=CC=C(C=C4)O)NC(=O)[C@@H](CC5=CC=CC=C5)N)O [CAP-232] + O=C(CCCCCCC(=O)Nc1ccccc1)NO [Vorinostat] (partner 1 µM)
Summary of the method: as §1

CAP-232 + Decitabine = compound: C[C@H]([C@@H](C(=O)N)NC(=O)[C@@H]1CSSC[C@@H](C(=O)N[C@H](C(=O)N[C@@H](C(=O)N[C@H](C(=O)N1)CCCCN)CC2=CNC3=CC=CC=C32)CC4=CC=C(C=C4)O)NC(=O)[C@@H](CC5=CC=CC=C5)N)O [CAP-232] + Nc1ncn([C@H]2C[C@H](O)[C@@H](CO)O2)c(=O)n1 [Decitabine] (partner 2 µM)
Summary of the method: as §1

CAP-232 + Olaparib = compound: C[C@H]([C@@H](C(=O)N)NC(=O)[C@@H]1CSSC[C@@H](C(=O)N[C@H](C(=O)N[C@@H](C(=O)N[C@H](C(=O)N1)CCCCN)CC2=CNC3=CC=CC=C32)CC4=CC=C(C=C4)O)NC(=O)[C@@H](CC5=CC=CC=C5)N)O [CAP-232] + O=C(c1cc(Cc2n[nH]c(=O)c3ccccc23)ccc1F)N1CCN(C(=O)C2CC2)CC1 [Olaparib] (partner 8 µM)
Summary of the method: as §1

CAP-232 + Pemetrexed = compound: C[C@H]([C@@H](C(=O)N)NC(=O)[C@@H]1CSSC[C@@H](C(=O)N[C@H](C(=O)N[C@@H](C(=O)N[C@H](C(=O)N1)CCCCN)CC2=CNC3=CC=CC=C32)CC4=CC=C(C=C4)O)NC(=O)[C@@H](CC5=CC=CC=C5)N)O [CAP-232] + Nc1nc2[nH]cc(CCc3ccc(C(=O)N[C@@H](CCC(=O)O)C(=O)O)cc3)c2c(=O)[nH]1 [Pemetrexed] (partner 0.2 µM)
Summary of the method: as §1

Cell Line | relative viability (CAP-232 + Alpelisib; first compound 0.4 µM) | relative viability (CAP-232 + Alpelisib; first compound 1.265 µM) | relative viability (CAP-232 + Alpelisib; first compound 4 µM) | relative viability (CAP-232 + Alpelisib; first compound 12.65 µM) | relative viability (CAP-232 + Vorinostat; first compound 0.4 µM) | relative viability (CAP-232 + Vorinostat; first compound 1.265 µM) | relative viability (CAP-232 + Vorinostat; first compound 4 µM) | relative viability (CAP-232 + Vorinostat; first compound 12.65 µM) | relative viability (CAP-232 + Decitabine; first compound 0.4 µM) | relative viability (CAP-232 + Decitabine; first compound 1.265 µM) | relative viability (CAP-232 + Decitabine; first compound 4 µM) | relative viability (CAP-232 + Decitabine; first compound 12.65 µM) | relative viability (CAP-232 + Olaparib; first compound 0.4 µM) | relative viability (CAP-232 + Olaparib; first compound 1.265 µM) | relative viability (CAP-232 + Olaparib; first compound 4 µM) | relative viability (CAP-232 + Olaparib; first compound 12.65 µM) | relative viability (CAP-232 + Pemetrexed; first compound 0.4 µM) | relative viability (CAP-232 + Pemetrexed; first compound 1.265 µM) | relative viability (CAP-232 + Pemetrexed; first compound 4 µM) | relative viability (CAP-232 + Pemetrexed; first compound 12.65 µM)
LCLC-97TM1 | 0.252 | 0.228 | 0.285 | 0.244 | 0.876 | 0.764 | 1.08 | 0.995 | 0.195 | 0.211 | 0.192 | 0.237 | 0.418 | 0.421 | 0.346 | 0.438 | 0.192 | 0.16 | 0.167 | 0.183
NCI-H1993 | 0.605 | 0.674 | 0.719 | 0.633 | 0.702 | 0.802 | 0.791 | 0.749 | 0.569 | 0.676 | 0.608 | 0.559 | 1.32 | 1.14 | 0.933 | 1.08 | 0.602 | 0.533 | 0.553 | 0.586
HARA | 0.791 | 0.847 | 0.876 | 0.58 | 0.497 | 0.487 | 0.598 | 0.432 | 0.526 | 0.555 | 0.523 | 0.527 | 0.823 | 0.784 | 0.865 | 0.609 | 0.281 | 0.243 | 0.268 | 0.215
NCI-H460 | 0.512 | 0.541 | 0.595 | 0.211 | 1.01 | 0.865 | 1.1 | 0.363 | 0.496 | 0.475 | 0.541 | 0.17 | 0.515 | 0.384 | 0.526 | 0.332 | 0.0632 | 0.0566 | 0.0556 | 0.0558
EKVX | 0.806 | 0.969 | 0.833 | 0.715 | 1.01 | 0.74 | 0.818 | 0.749 | 0.993 | 0.367 | 0.256 | 0.323 | 0.901 | 0.95 | 0.993 | 0.804 | 0.392 | 0.375 | 0.413 | 0.33
NCI-H1755 | 0.984 | 0.91 | 1.1 | 0.763 | 0.698 | 0.635 | 0.755 | 0.73 | 0.734 | 0.738 | 0.761 | 0.723 | 0.911 | 0.881 | 0.935 | 0.824 | 0.398 | 0.375 | 0.514 | 0.393
NCI-H1395 | 0.888 | 1.08 | 0.912 | 0.848 | 1.11 | – | 0.79 | 0.573 | 0.777 | – | 0.745 | 0.537 | 0.436 | – | 0.462 | 0.264 | 0.971 | – | 0.917 | 0.503
NCI-H2087 | 0.983 | 1.17 | 0.929 | 0.841 | 0.985 | 0.728 | 0.886 | 0.439 | 0.265 | 0.261 | 0.276 | 0.238 | 0.646 | 0.669 | 0.697 | 0.312 | 0.662 | 0.655 | 0.68 | 0.604
H3255 | 0.759 | 0.741 | 0.633 | 0.503 | 0.923 | – | 0.7 | 0.726 | 0.744 | – | 0.608 | 0.676 | 0.569 | 0.587 | 0.552 | 0.433 | 0.605 | 0.549 | 0.559 | 0.543
SK-MES-1 | 0.997 | 0.944 | 1.06 | 0.938 | 1.3 | 1.13 | 1.02 | 0.489 | 0.452 | 0.344 | 0.384 | 0.274 | 0.747 | 0.718 | 0.762 | 0.607 | 1.04 | 0.95 | 0.961 | 0.608
NCI-H23 | 0.848 | 0.743 | 0.714 | 0.668 | 0.578 | 0.534 | 0.558 | 0.54 | 0.293 | 0.295 | 0.296 | 0.295 | 0.34 | 0.301 | 0.306 | 0.27 | 0.686 | 0.492 | 0.746 | 0.623
HCC-827 | 0.913 | 0.925 | 0.967 | 0.919 | 0.888 | 0.832 | 0.883 | 0.891 | 0.334 | 0.357 | 0.324 | 0.365 | 0.699 | 0.627 | 0.622 | 0.672 | 0.266 | 0.277 | 0.222 | 0.231
HCC-78 | 0.317 | 0.371 | 0.312 | 0.819 | 0.47 | 0.489 | 0.388 | 0.441 | 0.755 | 0.764 | 0.687 | 0.636 | 0.852 | 0.863 | 1.08 | 0.924 | 0.939 | 0.912 | 0.901 | 0.899
NCI-H1975 | 0.734 | 0.579 | 0.704 | 0.434 | 0.781 | 0.758 | 0.763 | 0.449 | 0.399 | 0.39 | 0.406 | 0.207 | 0.825 | 0.894 | 1.04 | 0.363 | 0.32 | 0.289 | 0.307 | 0.197
COR-L23 | 0.725 | 0.754 | 0.701 | 0.616 | 0.518 | 0.474 | 0.488 | 0.381 | 0.451 | 0.407 | 0.471 | 0.337 | 0.43 | 0.403 | 0.404 | 0.279 | 0.203 | 0.199 | 0.196 | 0.163
UMC-11 | 1.06 | 1.04 | 1.16 | 0.777 | 0.357 | 0.413 | 0.344 | 0.272 | 0.55 | 0.55 | 0.581 | 0.671 | 0.358 | 0.339 | 0.374 | 0.248 | 0.824 | 0.843 | 0.821 | 0.613
NCI-H2126 | 0.751 | 0.742 | 0.8 | 0.73 | 0.827 | 0.795 | 0.755 | 0.857 | 0.488 | 0.612 | 0.618 | 0.614 | 0.899 | 0.866 | 0.992 | 0.914 | 0.703 | 0.696 | 0.706 | 0.654
